The text below walks through data of patent US11965039B2, “Compstatin analogues and their medical uses” (priority 2018, dated 2024).

By IC50 is commonly meant the concentration that inhibits the measured activity by half.

SMILES strings stand for the structures. Starred links: 1 amine or outer side, 2 acyl side, 3 side chain; linkers in the order of their positions; H or OH if unused. Positions of bridges follow the written chain, without caps; N, C: chain ends. Non-standard residues stand in square brackets, D forms with d. Residues, ends and D or L forms follow the SMILES beside them. Groups on a side chain read outwards from the residue. *: point of attachment. Trp(1-Me) = Cn1cc(C[C@H](N)C(=O)O)c2ccccc21; C18 diacid = O=C(O)CCCCCCCCCCCCCCCCC(=O)*; C16 diacid = O=C(O)CCCCCCCCCCCCCCC(=O)*; γGlu = O=C(O)[C@H](CCC(=O)[*:2])N[*:1]; Nva = CCC[C@H](N)C(=O)O; AEEA = NCCOCCOCC(=O)O; Sar = CNCC(=O)O Some results are limits rather than exact numbers.

In one experiment the test system is classical complement pathway. Briefly: In vitro haemolysis assay (inhibition of classical complement pathway). Type of experiment: cell-based, human. As to conditions: Table 5, different residues at position 3 of Ac-IC(1)XWQDWGEHRC(1)T-NH2; read-out: IC50, CP hemolysis. A digest of the protocol: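 Compound dilutions preincubated 15 min at room temperature with diluted human serum (titrated per batch for 70-90% maximal haemolysis), then antibody-sensitized sheep RBC (10^7/well) added for 30 min at 37 °C in Tris/casein buffer, pH 7.4. Stopped with EDTA; haemolysis read at 405 nm; IC50 by 4PL fit.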
Consider `CCC[C@@H]1NC(=O)[C@@H](NC(=O)[C@@H](NC(C)=O)[C@@H](C)CC)CSSC[C@@H](C(=O)N[C@H](C(N)=O)[C@@H](C)O)NC(=O)[C@H](CCCNC(=N)N)NC(=O)[C@H](Cc2c[nH]cn2)NC(=O)[C@H](CCC(=O)O)NC(=O)CNC(=O)[C@H](Cc2c[nH]c3ccccc23)NC(=O)[C@H](CC(=O)O)NC(=O)[C@H](CCC(N)=O)NC(=O)[C@H](Cc2c[nH]c3ccccc23)NC1=O` [Norvaline, Ac-IC(1)XWQDWGEHRC(1)T-NH2, reference compound] (Ac-IC[Nva]WQDWGEHRCT-NH2; disulfide 2-12), for which the IC50 is greater than 1 µM.

The same experiment, now with this note: human serum, sensitized sheep red blood cells; Table 3, given as upper bounds; read-out: IC50, inhibition of hemolysis.
As to `CC[C@H](C)[C@@H]1NC(=O)[C@@H](NC(=O)[C@H](Cc2ccc(O)cc2)NC(=O)[C@H](CCC(=O)O)NC(=O)[C@H](CO)NC(C)=O)CSSC[C@@H](C(=O)N(C)CC(=O)N[C@@H](CCC(=O)O)C(=O)NCC(=O)N[C@@H](CCC(=O)O)C(=O)NCCOCCOCC(=O)NCCOCCOCC(=O)N[C@@H](CCCCNC(=O)CC[C@H](NC(=O)CNC(=O)CC[C@H](NC(=O)CCCCCCCCCCCCCCCCC(=O)O)C(=O)O)C(=O)O)C(N)=O)NC(=O)[C@H](CCCNC(=N)N)NC(=O)[C@H](Cc2c[nH]cn2)NC(=O)[C@H](CCC(=O)O)NC(=O)CNC(=O)[C@H](Cc2c[nH]c3ccccc23)NC(=O)[C@H](CC(=O)O)NC(=O)[C@H](CCC(N)=O)NC(=O)[C@H](Cc2cn(C)c3ccccc23)NC1=O` [Compound 117] (Ac-SEYCI[Trp(1-Me)]QDWGEHRC[Sar]EGE[AEEA][AEEA]K([γGlu-Gly-γGlu-C18 diacid])-NH2; disulfide 4-14), the 50% inhibitory concentration (IC50) is less than 0.25 µM.

As to `CC[C@H](C)[C@H](NC(=O)[C@H](C)NC(=O)[C@H](CO)NC(=O)[C@H](CO)NC(=O)[C@H](CCC(=O)O)NC(C)=O)C(=O)N[C@H]1CSSC[C@@H](C(=O)N[C@H](C(N)=O)[C@@H](C)O)NC(=O)[C@H](CCCNC(=N)N)NC(=O)[C@H](Cc2c[nH]cn2)NC(=O)[C@H](C)NC(=O)CNC(=O)[C@H](Cc2c[nH]c3ccccc23)NC(=O)[C@H](CC(=O)O)NC(=O)[C@H](CCC(N)=O)NC(=O)[C@H](Cc2c[nH]c3ccccc23)NC(=O)[C@H]([C@@H](C)CC)NC1=O` [Compound 46] (Ac-ESSAICIWQDWGAHRCT-NH2; disulfide 6-16), the 50% inhibitory concentration (IC50) is less than 0.1 µM.

Turning to `CC[C@H](C)[C@@H]1NC(=O)[C@@H](NC(=O)[C@H](Cc2ccccc2)NC(=O)[C@H](CCC(=O)O)NC(=O)[C@H](CO)NC(C)=O)CSSC[C@@H](C(=O)N[C@H](C(=O)N[C@@H](CCC(=O)O)C(=O)NCC(=O)N[C@@H](CCC(=O)O)C(=O)NCC(=O)NCC(=O)NCC(=O)N[C@@H](CCCCNC(=O)CC[C@H](NC(=O)CNC(=O)CC[C@H](NC(=O)CCCCCCCCCCCCCCC(=O)O)C(=O)O)C(=O)O)C(N)=O)[C@@H](C)O)NC(=O)[C@H](CCCNC(=N)N)NC(=O)[C@H](Cc2c[nH]cn2)NC(=O)[C@H](CCC(=O)O)NC(=O)CNC(=O)[C@H](Cc2c[nH]c3ccccc23)NC(=O)[C@H](CC(=O)O)NC(=O)[C@H](CCC(N)=O)NC(=O)[C@H](Cc2cn(C)c3ccccc23)NC1=O` [Compound 131] (Ac-SEFCI[Trp(1-Me)]QDWGEHRCTEGEGGGK([γGlu-Gly-γGlu-C16 diacid])-NH2; disulfide 4-14), the 50% inhibitory concentration (IC50) is less than 0.1 µM.

Consider `CC[C@H](C)[C@@H]1NC(=O)[C@@H](NC(=O)[C@H](Cc2ccccc2)NC(=O)[C@H](C)NC(=O)[C@H](CO)NC(=O)CNC(=O)[C@H](CCC(=O)O)NC(C)=O)CSSC[C@@H](C(=O)N[C@@H](CCC(=O)O)C(=O)NCC(=O)N[C@@H](CCC(=O)O)C(N)=O)NC(=O)[C@H](CCCNC(=N)N)NC(=O)[C@H](Cc2c[nH]cn2)NC(=O)[C@H](CCC(=O)O)NC(=O)CNC(=O)[C@H](Cc2c[nH]c3ccccc23)NC(=O)[C@H](CC(=O)O)NC(=O)[C@H](CCC(N)=O)NC(=O)[C@H](Cc2cn(C)c3ccccc23)NC1=O` [Compound 58] (Ac-EGSAFCI[Trp(1-Me)]QDWGEHRCEGE-NH2; disulfide 6-16), for which the IC50 was less than 0.1 µM.

Regarding `CC[C@H](C)[C@@H]1NC(=O)[C@@H](NC(=O)[C@H](Cc2ccccc2)NC(=O)[C@H](CCC(=O)O)NC(=O)[C@H](CO)NC(C)=O)CSSC[C@@H](C(=O)N(C)CC(=O)N[C@@H](CCC(=O)O)C(=O)N[C@@H](C)C(N)=O)NC(=O)[C@H](CCCCN)NC(=O)[C@H](Cc2c[nH]cn2)NC(=O)[C@H](CCC(=O)O)NC(=O)CNC(=O)[C@H](Cc2c[nH]c3ccccc23)NC(=O)[C@H](CC(=O)O)NC(=O)[C@H](CCC(N)=O)NC(=O)[C@H](Cc2cn(C)c3ccccc23)NC1=O` [Compound 86] (Ac-SEFCI[Trp(1-Me)]QDWGEHKC[Sar]EA-NH2; disulfide 4-14), the IC50 was less than 0.1 µM.

In the case of `CC[C@H](C)[C@@H]1NC(=O)[C@@H](NC(=O)[C@H](Cc2ccccc2)NC(=O)[C@H](CCC(=O)O)NC(=O)[C@H](CO)NC(C)=O)CSSC[C@@H](C(=O)N[C@H](C(=O)N[C@@H](CCC(=O)O)C(=O)NCC(=O)N[C@@H](CCC(=O)O)C(=O)NCCOCCOCC(=O)N[C@@H](CCC(=O)O)C(=O)N[C@@H](CO)C(=O)N[C@@H](CCCCNC(=O)CC[C@H](NC(=O)CCCCCCCCCCCCCCCCC(=O)O)C(=O)O)C(N)=O)[C@@H](C)O)NC(=O)[C@H](CCCNC(=N)N)NC(=O)[C@H](Cc2c[nH]cn2)NC(=O)[C@H](CCC(=O)O)NC(=O)CNC(=O)[C@H](Cc2c[nH]c3ccccc23)NC(=O)[C@H](CC(=O)O)NC(=O)[C@H](CCC(N)=O)NC(=O)[C@H](Cc2cn(C)c3ccccc23)NC1=O` [Compound 142] (Ac-SEFCI[Trp(1-Me)]QDWGEHRCTEGE[AEEA]ESK([γGlu-C18 diacid])-NH2; disulfide 4-14), the IC50 is less than 0.1 µM.

Regarding `CC[C@H](C)[C@H](NC(C)=O)C(=O)N[C@H]1CSSC[C@@H](C(=O)N[C@H](C(N)=O)[C@@H](C)O)NC(=O)[C@H](CCCNC(=N)N)NC(=O)[C@H](Cc2c[nH]cn2)NC(=O)[C@H](CCCNC(=N)N)NC(=O)CNC(=O)[C@H](Cc2c[nH]c3ccccc23)NC(=O)[C@H](CC(=O)O)NC(=O)[C@H](CCC(N)=O)NC(=O)[C@H](Cc2c[nH]c3ccccc23)NC(=O)[C@H]([C@@H](C)CC)NC1=O` [Compound 18] (Ac-ICIWQDWGRHRCT-NH2; disulfide 2-12), the 50% inhibitory concentration (IC50) was less than 0.1 µM.

In the case of `CC[C@H](C)[C@@H]1NC(=O)[C@@H](NC(=O)CN(C)C(=O)[C@H](N)Cc2ccc(O)cc2)CSSC[C@@H](C(=O)N[C@H](C(=O)N[C@@H](CCC(=O)O)C(=O)N[C@@H](C)C(N)=O)[C@@H](C)O)NC(=O)[C@H](CCCNC(=N)N)NC(=O)[C@H](Cc2c[nH]cn2)NC(=O)[C@H](CCC(=O)O)NC(=O)CNC(=O)[C@H](Cc2c[nH]c3ccccc23)NC(=O)[C@H](CC(=O)O)NC(=O)[C@H](CCC(N)=O)NC(=O)[C@H](Cc2cn(C)c3ccccc23)NC1=O` [Compound 91] (H-[dY][Sar]CI[Trp(1-Me)]QDWGEHRCTEA-NH2; disulfide 3-13), the 50% inhibitory concentration (IC50) is less than 0.1 µM.

Turning to `CC[C@H](C)[C@H](NC(=O)CNC(=O)[C@H](CCCCN)NC(=O)[C@H](CCC(=O)O)NC(C)=O)C(=O)N[C@H]1CSSC[C@@H](C(=O)N[C@H](C(=O)N[C@@H](CCC(=O)O)C(=O)N[C@@H](CCCCN)C(=O)N2CCC[C@H]2C(N)=O)[C@@H](C)O)NC(=O)[C@H](CCCNC(=N)N)NC(=O)[C@H](Cc2c[nH]cn2)NC(=O)[C@H](CCC(=O)O)NC(=O)CNC(=O)[C@H](Cc2c[nH]c3ccccc23)NC(=O)[C@H](CC(=O)O)NC(=O)[C@H](CCC(N)=O)NC(=O)[C@H](Cc2c[nH]c3ccccc23)NC(=O)[C@H]([C@@H](C)CC)NC1=O` [Compound 38] (Ac-EKGICIWQDWGEHRCTEKP-NH2; disulfide 5-15), the IC50 was less than 0.25 µM.

For the compound `CC[C@H](C)[C@@H]1NC(=O)[C@@H](NC(=O)[C@H](Cc2ccc(O)cc2)NC(=O)[C@H](CCC(=O)O)NC(=O)CNC(=O)[C@H](CO)NC(=O)[C@H](C)NC(C)=O)CSSC[C@@H](C(=O)N(C)CC(=O)N[C@@H](CCC(=O)O)C(=O)NCC(=O)N[C@@H](CCC(=O)O)C(=O)N[C@@H](CCCCNC(=O)CC[C@H](NC(=O)CNC(=O)CC[C@H](NC(=O)CCCCCCCCCCCCCCCCC(=O)O)C(=O)O)C(=O)O)C(N)=O)NC(=O)[C@H](CCCNC(=N)N)NC(=O)[C@H](Cc2c[nH]cn2)NC(=O)[C@H](CCC(=O)O)NC(=O)CNC(=O)[C@H](Cc2c[nH]c3ccccc23)NC(=O)[C@H](CC(=O)O)NC(=O)[C@H](CCC(N)=O)NC(=O)[C@H](Cc2cn(C)c3ccccc23)NC1=O` [Compound 113] (Ac-ASGEYCI[Trp(1-Me)]QDWGEHRC[Sar]EGEK([γGlu-Gly-γGlu-C18 diacid])-NH2; disulfide 6-16), the IC50 was less than 0.5 µM.

Regarding `CC[C@H](C)[C@H](NC(C)=O)C(=O)N[C@H]1CSSC[C@@H](C(=O)N[C@H](C(=O)N[C@@H](CCC(=O)O)C(=O)NCC(=O)N[C@@H](CCC(=O)O)C(=O)N[C@@H](CCCCNC(=O)COCCOCCNC(=O)COCCOCCNC(=O)CC[C@H](NC(=O)CCCCCCCCCCCCCCCCC(=O)O)C(=O)O)C(N)=O)[C@@H](C)O)NC(=O)[C@H](CCCNC(=N)N)NC(=O)[C@H](Cc2c[nH]cn2)NC(=O)[C@H](CCC(=O)O)NC(=O)CNC(=O)[C@H](Cc2c[nH]c3ccccc23)NC(=O)[C@H](CC(=O)O)NC(=O)[C@H](CCC(N)=O)NC(=O)[C@H](Cc2c[nH]c3ccccc23)NC(=O)[C@H]([C@@H](C)CC)NC1=O` [Compound 97] (Ac-ICIWQDWGEHRCTEGEK([AEEA-AEEA-γGlu-C18 diacid])-NH2; disulfide 2-12), the IC50 was less than 0.25 µM.

The experiment is the same for the next values; noted with them: human serum, sensitized sheep red blood cells; Table 4, valine 3 vs isoleucine 3 pairs; read-out: CP hemolysis IC50.
`CC[C@H](C)[C@H](NC(C)=O)C(=O)N[C@H]1CSSC[C@@H](C(=O)N[C@H](C(N)=O)[C@@H](C)O)NC(=O)[C@H](CCCNC(=N)N)NC(=O)[C@H](Cc2c[nH]cn2)NC(=O)[C@H](CO)NC(=O)CNC(=O)[C@H](Cc2c[nH]c3ccccc23)NC(=O)[C@H](CC(=O)O)NC(=O)[C@H](CCC(N)=O)NC(=O)[C@H](Cc2c[nH]c3ccccc23)NC(=O)[C@H](C(C)C)NC1=O` [B, reference compound] (Ac-ICVWQDWGSHRCT-NH2; disulfide 2-12): the IC50 worked out at 0.36 µM.
